Test results: patent US11053250B2, “Pyrrolo[1,2-b]pyridazine derivatives” (Gilead Sciences, Inc., priority 2018, dated 2021)

Experiments:
TNFα = assay: IRAK4 Monocyte TNFα Cell Based Assay; details: cryopreserved human monocytes, LPS 50 pg/ml stimulation, TNFα by TR-FRET
Method: The cell suspension was then plated at a density of 5,000 cells/well onto black 384 well Greiner clear bottom plates. Plates were pre-spotted with test compounds and serially diluted in DMSO where 40 nL/well were delivered using the Echo 550 acoustic liquid dispenser (Labcyte®) for a final DMSO concentration of 0.1%. Plated cells were treated with compound for 1 hour at 37° C. Cells were then stimulated with 50 pg/ml of LPS (Sigma) excluding outside columns of plate used for unstimulated cell control wells. Cells were incubated for an additional 4 hours at 37° C. Cells were then spun out of the media and 5 μl of sample were taken and analyzed for total TNFα content using the TR-FRET Human TNFα detection system (CisBio). This system utilizes two labeled antibodies (cryptate and XL665) that bind to two different epitopes of the TNFα molecule and produce FRET signal proportional to the concentration of TNFα in the sample. Detection antibodies are mixed 50:50 and 5 μL were dispensed into each well. Plates were covered with clear seals and incubated at room temp overnight. The following morning plates were read using an Envision 2103 Multilabeled reader (PerkinElmer) with excitation/emission/FRET emission at 340 nm/615 nm/665 nm, respectively. Fluorescence intensities at 615 nm and 665 nm emission wavelengths were expressed as a ratio (665 nm/615 nm). Percent of control was calculated as follows: % Control=100×(RatioSample−Ratio0% stimulation)/(Ratio100% Stimulation−Ratio0% stimulation) where unstimulated cells (0% stimulation) were the negative control and stimulated cells (100% stimulation) were used as the positive control.

IRAK4 enzyme = IRAK4 enzyme (Homo sapiens (Human), UniProt Q9NWZ3); assay: IRAK4 Biochemical Assay (TR-FRET/HTRF); details: 0.75 nM IRAK4, 500 μM ATP, STK1 peptide
Method: IRAK4 enzyme (Carna Biosciences, Chuo-ku, Kobe, Japan) activity was measured by detecting phosphorylated peptide substrate formation using an antibody against the phosphorylated peptide substrate. This is a time-resolved fluorescence resonance energy transfer (TR-FRET) immunoassay, based on the STK1 KinEASE Assay (Cisbio, Bedford, Mass.). The assay was designed as a simple two-step, endpoint assay (a 5 μl enzyme reaction followed by 5 μl stop and detect Solution) performed in ProxiPlate-384 Plus plates (Perkin Elmer, Waltham, Mass.). Staurosporine, a non-selective kinase inhibitor was used as a positive control. Compounds diluted in DMSO were spotted into 384 well plates using a Labcyte® Echo 550 Liquid Handling System prior to addition of IRAK4 enzyme and peptide substrate. Reaction solutions were delivered using a Multi-Flo (Bio-Tek Instruments). The enzyme and peptide solution was incubated with compound for 15 minutes at room temp before the reaction was initiated by the addition of ATP. The standard 5 μl reaction mixture contained 500 μM ATP, 2 μM peptide (STK1 Peptide), 0.75 nM of IRAK4 in reaction buffer (50 mM HEPES, pH 7.0, 0.02% NaN3, 0.01% BSA, 0.1 mM Orthovanadate, 5 mM MgCl2, 0.025% NP-40, 1 mM DTT). After 120 min of incubation at room temperature, 5 μl of Stop and Detect Solution (1:100 Cryptate labeled anti-phosphorylated peptide antibody solution and 125 nM Tracer in a 50 mM HEPES pH 7.0 detection buffer containing sufficient EDTA) was added. The plate was then further incubated for 60 minutes at room temperature and read on Envision 2103 Multilabeled reader (PerkinElmer) with excitation/emission/FRET emission at 340 nm/615 nm/665 nm, respectively. Fluorescence intensities at 615 nm and 665 nm emission wavelengths were expressed as a ratio (665 nm/615 nm). Percentage of inhibition was calculated as below: % Inhibition=100×(RatioSample−Ratio0% Inhibition)/(Ratio100% Inhibition−Ratio0% Inhibition)
The 0% inhibition value comes from control wells lacking inhibitor. The 100% inhibition value comes from control wells containing a saturating amount of known inhibitor staurosporine.

Chain of IRAK4 enzyme (Q9NWZ3 whole entry): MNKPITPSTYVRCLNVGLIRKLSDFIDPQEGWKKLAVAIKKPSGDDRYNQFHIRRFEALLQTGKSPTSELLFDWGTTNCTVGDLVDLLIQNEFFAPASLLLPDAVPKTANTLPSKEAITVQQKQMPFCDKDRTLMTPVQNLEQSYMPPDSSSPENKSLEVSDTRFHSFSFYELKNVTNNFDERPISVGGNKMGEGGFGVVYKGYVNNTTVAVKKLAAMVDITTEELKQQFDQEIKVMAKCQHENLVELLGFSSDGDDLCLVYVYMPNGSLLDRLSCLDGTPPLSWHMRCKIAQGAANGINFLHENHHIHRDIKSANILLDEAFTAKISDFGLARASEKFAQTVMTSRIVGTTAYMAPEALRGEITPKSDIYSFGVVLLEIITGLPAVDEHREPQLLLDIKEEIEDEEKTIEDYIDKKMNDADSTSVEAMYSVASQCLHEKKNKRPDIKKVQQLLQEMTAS

C[C@H](C#N)Nc1cc(-c2ccc3cc(C#N)cnn23)ncc1-c1cn(C[C@@H](F)C(C)(C)O)nn1 [Compound 1, 7-(4-(((R)-1-cyanoethyl)amino)-5-(1-((R)-2-fluoro-3-hydroxy-3-methylbutyl)-1H-1,2,3-triazol-4-yl)pyridin-2-yl)pyrrolo[1,2-b]pyridazine-3-carbonitrile]
EC50 (TNFα; Monocyte): 12 nM | IC50 (IRAK4 enzyme): < 1 nM

CC(C)Nc1cc(-c2ccc3cc(C#N)cnn23)ncc1-c1cn(C2CCOCC2)nn1 [Compound 59, 7-(4-(isopropylamino)-5-(1-(tetrahydro-2H-pyran-4-yl)-1H-1,2,3-triazol-4-yl)pyridin-2-yl)pyrrolo[1,2-b]pyridazine-3-carbonitrile]
EC50 (TNFα; Monocyte): 58 nM | IC50 (IRAK4 enzyme): < 1 nM

CNc1cc(-c2ccc3cc(C#N)cnn23)ncc1-c1cn([C@H]2CC[C@H](NC(=O)OC(C)(C)C)CC2)nn1 [Compound 23, tert-butyl ((1r,4r)-4-(4-(6-(3-cyanopyrrolo[1,2-b]pyridazin-7-yl)-4-(methylamino)pyridin-3-yl)-1H-1,2,3-triazol-1-yl)cyclohexyl)carbamate]
IC50 (IRAK4 enzyme): 16 nM

CC(C)(O)CCn1cc(-c2cnc(-c3ccc4cc(C#N)cnn34)cc2NC2COC2)nn1 [Compound 11, 7-(5-(1-(3-hydroxy-3-methylbutyl)-1H-1,2,3-triazol-4-yl)-4-(oxetan-3-ylamino)pyridin-2-yl)pyrrolo[1,2-b]pyridazine-3-carbonitrile]
EC50 (TNFα; Monocyte): 28 nM

7-(4-(isopropylamino)-5-(1-propyl-1H-1,2,3-triazol-4-yl)pyridin-2-yl)pyrrolo[1,2-b]pyridazine-3-carbonitrile [Compound 54]
EC50 (TNFα): 90 nM | IC50 (IRAK4 enzyme): 1 nM

Cn1cc(-c2cnc(-c3ccc4cc(C#N)cnn34)cc2N[C@H]2CCC[C@@H](O)C2)nn1 [Compound 12, 7-(4-(((1S,3R)-3-hydroxycyclohexyl)amino)-5-(1-methyl-1H-1,2,3-triazol-4-yl)pyridin-2-yl)pyrrolo[1,2-b]pyridazine-3-carbonitrile]
EC50 (TNFα; Monocyte): 30 nM | IC50 (IRAK4 enzyme): 1 nM

CC(C)(O)[C@H](F)Cn1cc(-c2cnc(-c3ccc4cc(C#N)cnn34)cc2NCC#N)nn1 [Compound 2, (R)-7-(4-((cyanomethyl)amino)-5-(1-(2-fluoro-3-hydroxy-3-methylbutyl)-1H-1,2,3-triazol-4-yl)pyridin-2-yl)pyrrolo[1,2-b]pyridazine-3-carbonitrile]
EC50 (TNFα; Monocyte): 15 nM | IC50 (IRAK4 enzyme): 1 nM

CNc1cc(-c2ccc3cc(C#N)cnn23)ncc1-c1cn(CC(F)(F)F)nn1 [Compound 24, 7-(4-(methylamino)-5-(1-(2,2,2-trifluoroethyl)-1H-1,2,3-triazol-4-yl)pyridin-2-yl)pyrrolo[1,2-b]pyridazine-3-carbonitrile]
EC50 (TNFα; Monocyte): 302 nM | IC50 (IRAK4 enzyme): 11 nM

CC(C)Nc1cc(-c2ccc3cc(C#N)cnn23)ncc1-c1cn(CC(=O)N(C)C)nn1 [Compound 44, 2-(4-(6-(3-cyanopyrrolo[1,2-b]pyridazin-7-yl)-4-(isopropylamino)pyridin-3-yl)-1H-1,2,3-triazol-1-yl)-N,N-dimethylacetamide]
EC50 (TNFα; Monocyte): 61 nM | IC50 (IRAK4 enzyme): 1 nM

CNc1cc(-c2ccc3cc(C#N)cnn23)ncc1-c1cn(CCC(C)(C)O)nn1 [Compound 26, 7-(5-(1-(3-hydroxy-3-methylbutyl)-1H-1,2,3-triazol-4-yl)-4-(methylamino)pyridin-2-yl)pyrrolo[1,2-b]pyridazine-3-carbonitrile]
EC50 (TNFα; Monocyte): 79 nM | IC50 (IRAK4 enzyme): 2 nM

COC(=O)NC[C@H]1C[C@H](Nc2cc(-c3ccc4cc(C#N)cnn34)ncc2-c2cn(CCC(C)(C)O)nn2)C1 [Compound 30, methyl (((1r,3r)-3-((2-(3-cyanopyrrolo[1,2-b]pyridazin-7-yl)-5-(1-(3-hydroxy-3-methylbutyl)-1H-1,2,3-triazol-4-yl)pyridin-4-yl)amino)cyclobutyl)methyl)carbamate]
EC50 (TNFα): 4 nM | IC50 (IRAK4 enzyme): < 1 nM

CC(C)(O)[C@H](F)Cn1cc(-c2cnc(-c3ccc4cc(C#N)cnn34)cc2NC23CCC(O)(CC2)CC3)nn1 [Compound 25, (R)-7-(5-(1-(2-fluoro-3-hydroxy-3-methylbutyl)-1H-1,2,3-triazol-4-yl)-4-((4-hydroxybicyclo[2.2.2]octan-1-yl)amino)pyridin-2-yl)pyrrolo[1,2-b]pyridazine-3-carbonitrile]
EC50 (TNFα; Monocyte): 3 nM | IC50 (IRAK4 enzyme): < 1 nM

CC(C)Nc1cc(-c2ccc3cc(C#N)cnn23)ncc1-c1cn(-c2cccnc2)nn1 [Compound 52, 7-(4-(isopropylamino)-5-(1-(pyridin-3-yl)-1H-1,2,3-triazol-4-yl)pyridin-2-yl)pyrrolo[1,2-b]pyridazine-3-carbonitrile]
EC50 (TNFα; Monocyte): 95 nM | IC50 (IRAK4 enzyme): 3 nM

COC(=O)NC[C@H]1C[C@H](Nc2cc(-c3ccc4cc(C#N)cnn34)ncc2-c2cn(CC(F)F)nn2)C1 [Compound 32, methyl (((1r,3r)-3-((2-(3-cyanopyrrolo[1,2-b]pyridazin-7-yl)-5-(1-(2,2-difluoroethyl)-1H-1,2,3-triazol-4-yl)pyridin-4-yl)amino)cyclobutyl)methyl)carbamate]
EC50 (TNFα): 38 nM | IC50 (IRAK4 enzyme): < 1 nM

CC(C)Nc1cc(-c2ccc3cc(C#N)cnn23)ncc1-c1cn(C2CCNCC2)nn1 [Compound 43, 7-(4-(isopropylamino)-5-(1-(piperidin-4-yl)-1H-1,2,3-triazol-4-yl)pyridin-2-yl)pyrrolo[1,2-b]pyridazine-3-carbonitrile]
EC50 (TNFα; Monocyte): 50 nM | IC50 (IRAK4 enzyme): < 1 nM

CC(C)Nc1cc(-c2ccc3cc(C#N)cnn23)ncc1-c1cn(C2(C(F)(F)F)CC2)nn1 [Compound 58, 7-(4-(isopropylamino)-5-(1-(1-(trifluoromethyl)cyclopropyl)-1H-1,2,3-triazol-4-yl)pyridin-2-yl)pyrrolo[1,2-b]pyridazine-3-carbonitrile]
EC50 (TNFα; Monocyte): 1240 nM | IC50 (IRAK4 enzyme): 12 nM

COC(=O)NC[C@H]1C[C@H](Nc2cc(-c3ccc4cc(C#N)cnn34)ncc2-c2cn(CC(F)(F)F)nn2)C1 [Compound 29, methyl (((1r,3r)-3-((2-(3-cyanopyrrolo[1,2-b]pyridazin-7-yl)-5-(1-(2,2,2-trifluoroethyl)-1H-1,2,3-triazol-4-yl)pyridin-4-yl)amino)cyclobutyl)methyl)carbamate]
EC50 (TNFα): 77 nM | IC50 (IRAK4 enzyme): < 1 nM

CC(=O)N1CCC(c2cn(-c3cnc(-c4ccc5cc(C#N)cnn45)cc3NC(C)C)nn2)CC1 [Compound 63, 7-(5-(4-(1-acetylpiperidin-4-yl)-1H-1,2,3-triazol-1-yl)-4-(isopropylamino)pyridin-2-yl)pyrrolo[1,2-b]pyridazine-3-carbonitrile]
EC50 (TNFα; Monocyte): 148 nM

CC(C)Nc1cc(-c2ccc3cc(C#N)cnn23)ncc1-n1cc(CCC(C)(C)O)nn1 [Compound 62, 7-(5-(4-(3-hydroxy-3-methylbutyl)-1H-1,2,3-triazol-1-yl)-4-(isopropylamino)pyridin-2-yl)pyrrolo[1,2-b]pyridazine-3-carbonitrile]
EC50 (TNFα; Monocyte): 31 nM

COC(=O)NC[C@H]1C[C@H](Nc2cc(-c3ccc4cc(C#N)cnn34)ncc2-c2cn([C@H]3CC[C@H](NC(=O)N4CCOCC4)CC3)nn2)C1 [Compound 17, methyl (((1R,3r)-3-((2-(3-cyanopyrrolo[1,2-b]pyridazin-7-yl)-5-(1-((1r,4R)-4-(morpholine-4-carboxamido)cyclohexyl)-1H-1,2,3-triazol-4-yl)pyridin-4-yl)amino)cyclobutyl)methyl)carbamate]
EC50 (TNFα; Monocyte): 5 nM
